Reference: patent US20240131173A1, “PROTACS WITH TRANSCRIPTION FACTOR TARGETING MOIETIES” (Beth Israel Deaconess Medical Center, Inc., priority 2021, published 2024)

Tests used:
[1] = molecular target: T1, VHL E3-PROTAC-p65 ternary complex (Homo sapiens, UniProt P40337+Q04206); experiment: GST pulldown assay of VHL E3 ligase complex and p65 with TF-PROTAC; type: binding; conditions: GST-VHL complex from E. coli, HEK293T lysate with Flag-p65, in vitro
T1 construct: made in house; host or cells: E. coli BL21(DE3) for the GST-VHL/Elongin B/C complex; HEK293T lysate for Flag-p65
T1 sequence (P40337 whole entry): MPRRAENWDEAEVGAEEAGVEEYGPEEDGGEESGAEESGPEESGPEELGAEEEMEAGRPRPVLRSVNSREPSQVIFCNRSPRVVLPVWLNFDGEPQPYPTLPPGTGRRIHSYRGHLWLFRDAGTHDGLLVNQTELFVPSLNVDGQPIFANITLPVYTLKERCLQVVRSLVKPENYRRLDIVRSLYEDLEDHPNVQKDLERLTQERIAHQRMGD
T1 sequence (Q15370 whole entry partner): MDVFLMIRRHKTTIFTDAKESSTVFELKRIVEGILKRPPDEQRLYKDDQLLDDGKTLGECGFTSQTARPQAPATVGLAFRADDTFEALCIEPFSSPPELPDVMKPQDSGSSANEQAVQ
T1 sequence (Q15369 whole entry partner): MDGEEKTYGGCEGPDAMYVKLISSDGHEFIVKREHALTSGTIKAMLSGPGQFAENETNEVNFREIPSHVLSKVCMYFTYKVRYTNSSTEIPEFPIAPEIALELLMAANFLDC
T1 sequence (Q04206 whole entry): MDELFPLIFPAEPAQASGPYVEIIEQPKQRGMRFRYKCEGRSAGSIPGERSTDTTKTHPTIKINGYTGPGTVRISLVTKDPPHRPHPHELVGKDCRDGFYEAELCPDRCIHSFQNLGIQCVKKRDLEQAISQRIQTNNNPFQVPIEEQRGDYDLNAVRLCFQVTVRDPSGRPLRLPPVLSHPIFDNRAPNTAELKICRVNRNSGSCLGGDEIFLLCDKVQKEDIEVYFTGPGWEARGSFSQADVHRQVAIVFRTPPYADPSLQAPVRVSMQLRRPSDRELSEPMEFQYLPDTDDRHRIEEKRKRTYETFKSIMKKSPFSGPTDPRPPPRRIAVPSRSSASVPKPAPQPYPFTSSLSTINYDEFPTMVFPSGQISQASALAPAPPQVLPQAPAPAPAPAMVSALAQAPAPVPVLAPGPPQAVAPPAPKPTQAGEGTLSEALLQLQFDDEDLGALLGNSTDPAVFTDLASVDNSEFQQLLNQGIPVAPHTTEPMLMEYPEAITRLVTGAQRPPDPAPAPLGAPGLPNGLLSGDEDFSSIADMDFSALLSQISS
Text: Furthermore, dNF-κB is capable of recruiting VHL E3 ubiquitin ligase to POI, NF-κB. […] However, dNF-κB obtained in current stage could not efficiently promote the degradation of p65 in cells, which prompted further optimization of the length of linker between the VHL ligand and DNA oligomer moieties for achieving efficient destruction of NF-κB in cells.
pGEX-GST-VHL/ElonginB construct was kindly gift from Dr. William Kaelin, Jr. at Dana-Farber Cancer Institute, Harvard Medical School. pGEX-GST-Elongin C plasmid was generated by subcloning Elongin C CDS into the BamHI and Xhol sites of pGEX-4T1-GST vector. The GST-VHL/ElonginB/C complex was purified as described 43. Briefly, BL21(DE3) E. coli was cotransfected with pGEX-GST-VHL/ElonginB and pGEX-GSTElonginC plasmid. Protein expression was induced by 100 μM isopropyl beta-D-thiogalactopyranoside (IPTG, Fisher Scientific) at 18° C.overnight. Then, the bacterial culture was centrifuged and sonicated in PBS buffer with protease inhibitor cocktail. Protein lysates were further purified with glutathione-Sepharose beads (GE17-0756-05) and washed with PBS for 5 times.
Glutathione-Sepharose beads loaded with GST-VHL E3 ligase complex were incubated at 4° C. with cell lysate derived from HEK293T cells that ectopic transfected with individual transfection factor. After incubation for 3 hours, TF-PROTACs were added into the mixture for another 2 hours, followed by wash with NETN buffer for 3 times. The pulldown products were further separated by 10% SDS-PAGE and blotted for indicated proteins.

p65 [2] = molecular target: T2, p65 (Homo sapiens, UniProt Q04206); experiment: Western blot of p65 in HeLa cells transfected with TF-PROTAC; type: cell-based; parameters: endogenous in cells; host or cells: HeLa; conditions: 10 uM MG132
Procedure: Human embryonic kidney 293T (HEK293T) and HeLa cells were maintained in Dulbecco's Modified Eagle's Medium (DMEM) containing 10% fetal bovine serum (FBS), 100 Units/mL of penicillin and 100 μg/mL streptomycin. For ectopic expression of transcription factors, Flag-p65 and HA-E2F1 were transfected into HEK293T cells and harvested for lysis 48 hours after transfection. For TF-PROTACs treatment, HeLa cells in 12-well plate were transfected with individual TF-PROTAC for 12 hours, followed by harvest for western blot analysis. […] For depletion of endogenous VHL E3 ligase, two sgRNA for VHL E3 ligase were synthesized and inserted into lenti-CRISPR-V2 construct 40. The sgVHL lentivirus were generated in HEK293T cells as previously described 41-42 for infection of HeLa cells overnight, followed by selection with puromycin for 72 h.
Cells were lysed in EBC buffer supplemented with protease inhibitors cocktail and phosphatase inhibitors, and the protein concentrations were measured as described above. The lysates (40 ug protein) were then resolved by 10% SDS-PAGE at 130 V for 80 min and immunoblotted with indicated antibodies at 4° C. overnight, washed 4 times with Tris-buffered saline with 0.1% Tween-20 (TBST), incubated with secondary antibody for 1 hour at room temperature, and then washed 4 times with TBST buffer. […]
Target sequence in this assay (Q04206 whole entry): as above
Target sequence in this assay (P19838 1-433 limits assumed, further chain): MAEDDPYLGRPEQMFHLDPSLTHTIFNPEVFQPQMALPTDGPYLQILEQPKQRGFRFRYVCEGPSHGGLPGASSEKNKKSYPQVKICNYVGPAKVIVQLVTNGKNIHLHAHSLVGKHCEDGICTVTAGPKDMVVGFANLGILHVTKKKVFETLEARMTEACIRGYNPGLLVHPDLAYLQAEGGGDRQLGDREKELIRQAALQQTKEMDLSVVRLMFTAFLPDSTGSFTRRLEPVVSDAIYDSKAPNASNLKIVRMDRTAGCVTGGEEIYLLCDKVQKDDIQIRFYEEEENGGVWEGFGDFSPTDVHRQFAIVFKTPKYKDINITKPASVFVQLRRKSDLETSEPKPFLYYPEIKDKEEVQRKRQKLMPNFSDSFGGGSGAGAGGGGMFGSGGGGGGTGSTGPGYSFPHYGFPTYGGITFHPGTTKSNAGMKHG

p65 [3] = molecular target: T2, p65; experiment: In vivo ubiquitination assay of p65 (Ni-NTA pulldown); type: cell-based; conditions: HEK293T cells, Flag-p65 24 hours, then dNF-κB 12 hours
Procedure: Denatured in vivo ubiquitination assays were performed as previously described 41. Briefly, HEK293T cells were firstly transfected with Flag-p65 or HA-E2F1 for 24 hours, followed by additional transfection of individual TF-PROTAC for another 12 hours. Before been harvested, HEK293T cells were treated with 30 μM of MG132 for 4 hours. After having been harvested in denatured buffer A (6 M guanidine-HCI, pH 8.0, 0.1 M Na2HPO4/NaH2PO4, and 10 mM imidazole) and sonication for 10 seconds, cell lysis was incubation with Ni-nitrilotriacetic acid (NTA) matrices under rotation for 3 hours at room temperature. The pulldown products were washed sequentially twice in buffer A, twice in buffer A/TI mixture (buffer A, buffer TI=1:3, v/v), and once in buffer TI (25 mM tris-HCl, pH 6.8, and 20 mM imidazole). The ubiquitinated proteins were finally separated by 7% SDS-PAGE and blotted with individual antibody.
Target sequence in this assay (Q04206 whole entry): as the sequence (Q04206 whole entry) above

dNF-κB #16 (TGGGGACTTTCCAGTTTCTGGAAAGTCCCCA; decoy; VHL ligand conjugate via PEG3 linker, further chemistry not given here)
VHL E3 ligase-p65 binding (ternary complex) induced by PROTAC [1]: recruited the binding between the VHL E3 ubiquitin ligase and p65 in vitro
degradation of endogenous p65 under proteasome inhibitor MG132 (p65 [2]): blocked the degradation of endogenous p65
ubiquitination of p65 in cells (p65 [3]): lead to the ubiquitination of p65 in cells
